Results published in US20180327367A1, “MACROCYCLIC BROAD SPECTRUM ANTIBIOTICS” (priority 2015, published 2018).
Values after ≈ are worked out from the molar mass of the structure shown. Like-named read-outs stand apart in the source and are kept apart here.

Columns and labels:
Assay type in all cases: cell-based
[1] = test system: Methicillin Resistant Staphylococcus aureus strain USA 300, NRS384; test: Minimum inhibitory concentration, broth micro-dilution (CLSI), S. aureus; details: Staphylococcus aureus, MRSA / NRS 384 / USA300, 22 h, 35° C., 22 hours
Method: (§1) In vitro antimicrobial activity of each compound was determined by measuring minimal inhibitor concentrations (MICs) using the broth micro-dilution technique as approved by the Clinical and Laboratory Standards Institute (CLSI) (Methods for Dilution Antimicrobial Susceptibility Tests for Bacteria that Grow Aerobically; Approved Standard—Eighth Edition. CLSI document M07-A8. Wayne, Pa.: Clinical and Laboratory Standards; 2009). Antibacterial activity was measure against three strains of bacteria: a Methicillin Resistant Staphylococcus aureus strain USA 300, NRS384 (S. aureus); a strain of Escherichia coli MC4100 harboring the IMP4213 (E. coli IMP), which results in increased outer-membrane permeability (B Martin and Silhavy T. Imp/OstA is required for cell envelope biogenesis in Escherichia coli. (2002) Molecular Microbiology, 45(5), 1289-1302), and Escherichia coli ATCC 25922 (E. coli), a clinically relevant Gram-negative strain. Cells were inoculated onto plates of Trypyticase Soy Agar or Luria Agar respectively and grown at 35° C. for 20 hours. Inocula suspensions were prepared by scraping cells into 1 mL of testing media (cation adjusted Mueller Hinton Broth supplemented with 0.002% v/v Tween-80) and diluting to a final OD600 nm of 0.01.
(§2) Test compounds were prepared in DMSO at a concentration of 10 mg/mL. […] In protocol 2, the compound stocks were diluted into testing media at a concentration of 4 μg/mL and serial 2-fold dilutions were made in the same media, in 96-well U bottom microtiter dishes, for a total of 10 compound concentrations. In protocol 3, compound stocks were diluted into testing media at a concentration of 0.5 μg/mL, with serial 2-fold dilutions conducted as described above. […] Inocula suspensions were added to the 2-fold serial dilutions of test compounds to a final density of OD OD600 nm of 0.0005 and incubated at 35° C. for 22 hours.

[2] = test system: Escherichia coli MC4100 harboring the IMP4213 (E. coli IMP); test: microbe, parasite or virus in culture; details: Escherichia coli, 22 h, read-out: MIC (μg/mL) E. coli IMP, E. coli MC4100 IMP4213, increased outer-membrane permeability; 35° C., 22 hours
Method: as §1, §2

[3] = test system: Escherichia coli ATCC 25922; test: Minimum inhibitory concentration, broth micro-dilution (CLSI), E. coli; details: Escherichia coli, ATCC25922, 22 h, 35° C., 22 hours
Method: Cells were inoculated onto plates of Trypyticase Soy Agar or Luria Agar respectively and grown at 35° C. for 20 hours. Inocula suspensions were prepared by scraping cells into 1 mL of testing media (cation adjusted Mueller Hinton Broth supplemented with 0.002% v/v Tween-80) and diluting to a final OD600 nm of 0.01.
as §2

[4] = MRSA USA 300 NRS384, read-out: MIC (μg/mL) S. aureus
[5] = E. coli ATCC 25922, read-out: MIC (μg/mL) E. coli
[6] = read-out: MIC (μg/mL) S. aureus, MRSA USA 300 NRS384
[7] = read-out: MIC (μg/mL) E. coli, E. coli ATCC 25922

| Compound | MIC [1, 4] [µg/mL] | MIC [2] [µg/mL] | MIC [3, 5] [µg/mL] | MIC [1, 6] [µg/mL] | MIC [3, 7] [µg/mL] |
| --- | --- | --- | --- | --- | --- |
| CCCCCCCOc1ccc(C(=O)N[C@@H](CCN)C(=O)N(C)[C@@H]2C(=O)N[C@@H](C)C(=O)N[C@H](C(=O)NCC#N)Cc3ccc(OCCN)c(c3)-c3cc2ccc3OCCN)c(C)c1C [Compound 294] | 0.063 (≈ 0.0713 µM) | 0.0078 (≈ 0.00882 µM) | 0.25 (≈ 0.283 µM) |  |  |
| C[C@@H]1NC(=O)[C@@H](N(C)C(=O)[C@H](CCN)NC(=O)c2ccc(OCC(C)(C)C)c3ccccc23)c2ccc(OCCN)c(c2)-c2cc(ccc2OCCN)C[C@@H](C(=O)NCC#N)NC1=O [Compound 296] | 0.047 (≈ 0.0535 µM) | 0.031 (≈ 0.0353 µM) | 2 (≈ 2.28 µM) |  |  |
| CCCCCCOCc1ccc(C(=O)N[C@@H](CCN)C(=O)N(C)[C@@H]2C(=O)N[C@@H](C)C(=O)N[C@H](C(=O)NCC#N)Cc3ccc(OCCN)c(c3)-c3cc2ccc3OCCN)c(Cl)c1 [Compound 297] | 0.063 (≈ 0.0707 µM) | 0.0078 (≈ 0.00876 µM) | 1 (≈ 1.12 µM) |  |  |
| CCCCCCCn1cc(C(=O)N[C@@H](CCN)C(=O)N(C)[C@@H]2C(=O)N[C@@H](C)C(=O)N[C@H](C(=O)NCC#N)Cc3ccc(OCCN)c(c3)-c3cc2ccc3OCCN)c(C)nc1=O [Compound 301] | 4 (≈ 4.59 µM) | 4 (≈ 4.59 µM) | > 64 |  |  |
| Cc1nc(C#CC2CCCCC2)ncc1C(=O)N[C@@H](CCN)C(=O)N(C)[C@@H]1C(=O)N[C@@H](C)C(=O)N[C@H](C(=O)NCC#N)Cc2ccc(OCCN)c(c2)-c2cc1ccc2OCCN [Compound 312] | 0.25 (≈ 0.289 µM) | 0.023 (≈ 0.0266 µM) | 0.5 (≈ 0.579 µM) |  |  |
| CCCCCCCc1ccc(C(=O)N[C@@H](CCN)C(=O)N(C)[C@@H]2C(=O)N[C@@H](C)C(=O)N[C@H](C(=O)NCC#N)Cc3ccc(O)c(c3)-c3cc2ccc3OCCN)c(C)c1 [Compound 314] | 0.078 (≈ 0.0962 µM) | 0.023 (≈ 0.0284 µM) | 0.44 (≈ 0.543 µM) |  |  |
| CCCCCCCc1ccc(C(=O)N[C@@H](CCN)C(=O)N(C)[C@@H]2C(=O)N[C@@H](C)C(=O)N[C@H](C(=O)NCC#N)Cc3ccc(OCCN)c(c3)-c3cc2ccc3O)c(C)c1 [Compound 315] | 0.078 (≈ 0.0962 µM) | 0.014 (≈ 0.0173 µM) | 0.38 (≈ 0.469 µM) |  |  |
| CCCCCCCCCCCCCC(=O)N[C@@H](CCN)C(=O)N(C)[C@@H]1C(=O)N[C@@H](C)C(=O)N[C@H](C(=O)NCC#N)Cc2ccc(OCC(=O)O)c(c2)-c2cc1ccc2OCCN [Compound 327] | 0.25 (≈ 0.29 µM) | 0.0078 (≈ 0.00904 µM) | 2 (≈ 2.32 µM) |  |  |
| CCCCCCCCCCCCCC(=O)N[C@@H](CCN)C(=O)N(C)[C@@H]1C(=O)N[C@@H](C)C(=O)N[C@H](C(=O)NCC#N)Cc2ccc(OCC(=O)OC(C)(C)C)c(c2)-c2cc1ccc2OCCN [Compound 328] | 1 (≈ 1.09 µM) | 0.25 (≈ 0.272 µM) | 4 (≈ 4.35 µM) |  |  |
| CCCCCCc1ccc(S(=O)(=O)N[C@@H](CCN)C(=O)N(C)[C@@H]2C(=O)N[C@@H](C)C(=O)N[C@H](C(=O)NCC#N)Cc3ccc(OCCN)c(c3)-c3cc2ccc3OCCN)c(C)c1 [Compound 347] |  | 0.063 (≈ 0.0719 µM) |  | 0.063 (≈ 0.0719 µM) | 8 (≈ 9.13 µM) |
| CCCCCCCCCCNCCS(=O)(=O)N[C@@H](CCCN)C(=O)N(C)[C@@H]1C(=O)N[C@@H](C)C(=O)N[C@H](C(=O)NCC#N)Cc2ccc(OCCN)c(c2)-c2cc1ccc2OCCN [Compound 349] | 0.016 (≈ 0.0178 µM) | 0.13 (≈ 0.145 µM) | 8 (≈ 8.9 µM) |  |  |
| CCCCCCCCCCNCCS(=O)(=O)N(C)[C@@H]1C(=O)N[C@@H](C)C(=O)N[C@H](C(=O)NCC#N)Cc2ccc(OCCN)c(c2)-c2cc1ccc2OCCN [Compound 351] | 1 (≈ 1.27 µM) | > 4 | > 64 |  |  |
| CCCCCCCCCC(=O)N[C@H](C(=O)N[C@@H](CCN)C(=O)N(C)[C@@H]1C(=O)N[C@@H](C)C(=O)N[C@H](C(=O)NCC#N)Cc2ccc(OCCN)c(c2)-c2cc1ccc2OCCN)[C@@H](C)O [Compound 356] |  | 0.13 (≈ 0.146 µM) |  | 0.094 (≈ 0.105 µM) | 12 (≈ 13.4 µM) |
| CCCCCCCCCC(=O)N[C@H](CO)C(=O)N[C@@H](CCN)C(=O)N(C)[C@@H]1C(=O)N[C@@H](C)C(=O)N[C@H](C(=O)NCC#N)Cc2ccc(OCCN)c(c2)-c2cc1ccc2OCCN [Compound 359] |  | 0.13 (≈ 0.148 µM) |  | 0.063 (≈ 0.0717 µM) | 16 (≈ 18.2 µM) |
| CCCCCCCCCNC(=O)CC(=O)N[C@@H](CCN)C(=O)N(C)[C@@H]1C(=O)N[C@@H](C)C(=O)N[C@H](C(=O)NCC#N)Cc2ccc(OCCN)c(c2)-c2cc1ccc2OCCN [Compound 361] | 0.13 (≈ 0.153 µM) | 0.13 (≈ 0.153 µM) | 16 (≈ 18.8 µM) |  |  |
| CCCCCCCCCC(=O)NCC(=O)NCC(=O)N[C@@H](CCN)C(=O)N(C)[C@@H]1C(=O)N[C@@H](C)C(=O)N[C@H](C(=O)NCC#N)Cc2ccc(OCCN)c(c2)-c2cc1ccc2OCCN [Compound 362] |  | 0.5 (≈ 0.552 µM) |  | 0.25 (≈ 0.276 µM) | 32 (≈ 35.3 µM) |
| CCCCCCCCCC(=O)N[C@@H](C)C(=O)NCC(=O)N[C@@H](CCN)C(=O)N(C)[C@@H]1C(=O)N[C@@H](C)C(=O)N[C@H](C(=O)NCC#N)Cc2ccc(OCCN)c(c2)-c2cc1ccc2OCCN [Compound 363] |  | 0.5 (≈ 0.543 µM) |  | 0.25 (≈ 0.272 µM) | 64 (≈ 69.6 µM) |
| CCCCCCCCCC(=O)N[C@@H](C)C(=O)NCCC(=O)N[C@@H](CCN)C(=O)N(C)[C@@H]1C(=O)N[C@@H](C)C(=O)N[C@H](C(=O)NCC#N)Cc2ccc(OCCN)c(c2)-c2cc1ccc2OCCN [Compound 364] | 0.38 (≈ 0.407 µM) | 0.75 (≈ 0.803 µM) | 48 (≈ 51.4 µM) |  |  |
| CCCCCCCCCC(=O)N[C@H](C)C(=O)NCCC(=O)N[C@@H](CCN)C(=O)N(C)[C@@H]1C(=O)N[C@@H](C)C(=O)N[C@H](C(=O)NCC#N)Cc2ccc(OCCN)c(c2)-c2cc1ccc2OCCN [Compound 365] | 0.38 (≈ 0.407 µM) | 0.5 (≈ 0.535 µM) | 64 (≈ 68.5 µM) |  |  |
| CCCCCCCCCC(=O)NCCC(=O)NCC(=O)N[C@@H](CCN)C(=O)N(C)[C@@H]1C(=O)N[C@@H](C)C(=O)N[C@H](C(=O)NCC#N)Cc2ccc(OCCN)c(c2)-c2cc1ccc2OCCN [Compound 368] |  | 1 (≈ 1.09 µM) |  | 0.25 (≈ 0.272 µM) | 64 (≈ 69.6 µM) |
| CCCCCCCCCC(=O)N[C@H](C)C(=O)N[C@@H](CCN)C(=O)N(C)[C@@H]1C(=O)N[C@@H](C)C(=O)N[C@H](C(=O)NCC#N)Cc2ccc(OCCN)c(c2)-c2cc1ccc2OCCN [Compound 374] |  | 0.13 (≈ 0.151 µM) |  | 0.19 (≈ 0.22 µM) | 16 (≈ 18.5 µM) |
| CCCCCCCCCC(=O)NCCC(=O)NCCC(=O)N[C@@H](CCN)C(=O)N(C)[C@@H]1C(=O)N[C@@H](C)C(=O)N[C@H](C(=O)NCC#N)Cc2ccc(OCCN)c(c2)-c2cc1ccc2OCCN [Compound 376] | 0.5 (≈ 0.535 µM) | 2.3 (≈ 2.46 µM) | > 64 |  |  |
| CCCCc1ccc(C(=O)N[C@@H](CCN)C(=O)N[C@@H](C)C(=O)N(C)[C@@H]2C(=O)N[C@@H](C)C(=O)N[C@H](C(=O)NCC#N)Cc3ccc(OCCN)c(c3)-c3cc2ccc3OCCN)c(C)c1 [Compound 380] |  | 4 (≈ 4.53 µM) |  | > 4 | 64 (≈ 72.5 µM) |
| CCCCc1ccc(C(=O)N[C@@H](CCO)C(=O)N[C@@H](CCN)C(=O)N(C)[C@@H]2C(=O)N[C@@H](C)C(=O)N[C@H](C(=O)NCC#N)Cc3ccc(OCCN)c(c3)-c3cc2ccc3OCCN)c(C)c1 [Compound 382] |  | 0.5 (≈ 0.548 µM) |  | 0.5 (≈ 0.548 µM) | 64 (≈ 70.1 µM) |
| CCCCCCCCCC(=O)N[C@@H](CCC(N)=O)C(=O)N[C@@H](CCN)C(=O)N(C)[C@@H]1C(=O)N[C@@H](C)C(=O)N[C@H](C(=O)NCC#N)Cc2ccc(OCCN)c(c2)-c2cc1ccc2OCCN [Compound 385] |  | 0.5 (≈ 0.543 µM) |  | 0.25 (≈ 0.272 µM) | 32 (≈ 34.8 µM) |
| CCCCCCCCCC(=O)N[C@@H](CCNC(C)=O)C(=O)N[C@@H](CCN)C(=O)N(C)[C@@H]1C(=O)N[C@@H](C)C(=O)N[C@H](C(=O)NCC#N)Cc2ccc(OCCN)c(c2)-c2cc1ccc2OCCN [Compound 386] |  | 0.5 (≈ 0.535 µM) |  | 0.38 (≈ 0.407 µM) | 64 (≈ 68.5 µM) |
| CCCCCCCCCCCC(=O)N[C@@H](CC(=O)O)C(=O)N[C@@H](CN)C(=O)N(C)[C@@H]1C(=O)N[C@@H](C)C(=O)N[C@H](C(=O)NCC#N)Cc2ccc(OCCN)c(c2)-c2cc1ccc2OCCN [Compound 387] |  | 0.38 (≈ 0.413 µM) |  | 0.25 (≈ 0.271 µM) | 64 (≈ 69.5 µM) |
| CCCCCCCCCC(=O)N(C)[C@@H](CO)C(=O)N[C@@H](CCN)C(=O)N(C)[C@@H]1C(=O)N[C@@H](C)C(=O)N[C@H](C(=O)NCC#N)Cc2ccc(OCCN)c(c2)-c2cc1ccc2OCCN [Compound 388] |  | 0.25 (≈ 0.28 µM) |  | 0.25 (≈ 0.28 µM) | 48 (≈ 53.7 µM) |
